Assay [1] deals with MCF7. Nature of the assay: Cell cycle arrest in human MCF7 cells expressing exogenous caspase-3 at 100 nM by immunofluorescence microscopy. It is filed as functional, cell-based.
Assay [2] deals with HeLa. The experiment in a line: Induction of apoptosis in human HeLa cells assessed as short, aberrantly shaped, tripolar or multipolar microtubule at 100 nM by immunofluorescence analysis. It is filed as functional, cell-based.
Assay [3] has as its system NCI/ADR-RES. The experiment in a line: Cytotoxicity against human NCI/ADR-RES cells assessed as growth inhibition after 96 hrs by Giemsa staining-based light microscopy. The class given is functional, cell-based.
In assay [4] the test system is A549. The experiment in a line: Cytotoxicity against human A549 cells assessed as growth inhibition after 48 hrs by MTT method. It is filed as functional, cell-based. The following applies: A549, 48 h. Background: Formazan colour is commonly taken as a measure of viable cells.
Assay [5] deals with HeLa. Nature of the assay: Cell cycle arrest in human HeLa cells assessed as accumulation at G2/M phase at 100 nM by propidium iodide staining-based flow cytometry. It is filed as functional. Background: Flow cytometry measures light scatter and fluorescence of single cells or particles in a stream.
Assay [6] can be described thus: Cytotoxicity against human MESSA cells assessed as growth inhibition after 72 hrs by CellTitre-Glo assay. It is filed as functional, cell-based. To be noted: MES-SA.
The subject of assay [7] is HT-29. Nature of the assay: Cytotoxicity against human HT-29 cells assessed as growth inhibition after 48 hrs by MTT method. It is filed as functional, cell-based. The following applies: HT-29, 48 h.
Assay [8] has as its system HeLa. The experiment in a line: Cell cycle arrest in human HeLa cells assessed as accumulation at G2/M phase at 20 nM by propidium iodide staining-based flow cytometry. It is filed as functional.
A short description of assay [9]: Cytotoxicity against human HCT116 cells assessed as growth inhibition after 48 hrs by MTT method. It is filed as functional, cell-based. The following applies: HCT-116, 48 h.
The target in assay [10] is Tubulin (Homo sapiens) (UniProt P68371+Q9H4B7+P0DPH7+P68366+Q13509+Q71U36+P04350+Q3ZCM7+P07437+P68363+Q9BQE3+Q6PEY2+Q13885+Q9BVA1+Q9BUF5). Nature of the assay: Displacement of [3H]colchicine from tubulin (unknown origin) at 5 uM after 10 mins. It is filed as protein-complex assay.
Assay [11] concerns MCF7. The experiment in a line: Cell cycle arrest in human MCF7 cells at 100 nM by immunofluorescence microscopy. The class given is functional, cell-based.
Assay [12] in a line: cells. To be noted: Homo sapiens, OVCAR-8, 96 h.
Description: Cytotoxicity against human OVCAR8 cells assessed as growth inhibition after 96 hrs by Giemsa staining-based light microscopy
Assay [13] relates to MCF7. The experiment in a line: Cytotoxicity against human MCF7 cells after 96 hrs by Giemsa staining-based light microscopy. The class given is functional, cell-based. To be noted: MCF7, 96 h.
Assay [14] concerns HeLa. Nature of the assay: Cell cycle arrest in human HeLa cells by propidium iodide staining-based flow cytometry. The class given is functional.
Assay [15] relates to HeLa. The experiment in a line: Cell cycle arrest in human HeLa cells assessed as mitotic rounded-up phenotype at 100 nM by light microscopy. The class given is functional, cell-based.
For assay [16], the system named is HeLa. The experiment in a line: Cytotoxicity against human HeLa cells assessed as growth inhibition after 48 hrs by MTT method. It is filed as functional, cell-based.
For assay [17], the target named is Tubulin. The experiment in a line: Inhibition of tubulin (unknown origin) polymerization incubated 15 mins prior to GTP addition by spectrophotometry. It is filed as protein-complex assay, Homo sapiens.
Assay [18] concerns HeLa. Nature of the assay: Induction of apoptosis in human HeLa cells assessed as failure of MT elongation at 100 nM by immunofluorescence analysis. It is filed as functional, cell-based.
Assay [19] in a line: cells. The following applies: Homo sapiens, HCT-15, 72 h.
Description: Cytotoxicity against human HCT15 cells assessed as growth inhibition after 72 hrs by CellTitre-Glo assay
Assay [20] concerns HeLa. Nature of the assay: Induction of apoptosis in human HeLa cells assessed as unstructured tubulin foci at 100 nM by immunofluorescence analysis. It is filed as functional, cell-based.
The test system of assay [21] is K562. Nature of the assay: Cell cycle arrest in human K562 cells assessed as mitotic index at 0.1 nM (reference value: 3 +/- 1%). The class given is functional.
Assay [22] relates to HeLa. The experiment in a line: Induction of apoptosis in human HeLa cells assessed as short, aberrantly shaped, tripolar or multipolar microtubule microtubule at 20 nM by immunofluorescence analysis. It is filed as functional, cell-based.
Assay [23] has as its system HeLa. Nature of the assay: Induction of apoptosis in human HeLa cells assessed as failure of MT elongation at 20 nM by immunofluorescence analysis. It is filed as functional, cell-based.

For two molecules, Activity, IC50 and inhibition results are on record in ChEMBL document CHEMBL3351435, “New pyrrole derivatives with potent tubulin polymerization inhibiting activity as anticancer agents including hedgehog-dependent cancer” (J Med Chem, 2014).

Active and inactive are the calls of the source. The rule behind the calls is not given here.

Consider `COc1cc(C(=O)c2ccn(-c3ccccc3)c2)cc(OC)c1OC`, for which the outcome in assay [1] and in assay [11] was inactive. In addition, the result in [2], in assay [5], in assay [8] and in assay [15] was Active. Also, the IC50 came to 20 nM in assay [3]; 200 nM in assay [4]; 56 nM in assay [6]; 90 nM in [7]; 77 nM in [9]; 45 nM in assay [12]. Moreover, the values for the half-inhibitory concentration (IC50) in assay [13], in assay [16] and in [17] were 700 nM, 100 nM and 1500 nM, respectively. The molecule further showed an inhibition in [10] of 80%. Moreover, the Activity entry in assay [14] is “Dose-dependent effect”.

In the case of `COc1ccc(/C=C\c2cc(OC)c(OC)c(OC)c2)cc1O` [COMBRETASTATIN A4], the outcome in [18], in assay [8], in [20], in assay [22] and in [23] was Active. The molecule also registered an IC50 in [19] of 39 nM. Besides, in [21], the Activity is on record as 65%.

Broadly, the IC50 is the concentration needed to halve the response being measured. What is called inhibition is the percentage by which the read-out fell short of the control.
